Test [1] addresses T1, HSP90a protein (Homo sapiens, UniProt P07900).
T1 construct: purchased BPS Bioscience 50298
In words: HSP90α-binding fluorescent polarization (FP) assay, BODIPY-labeled RNK04010 probe. The settings on record: FP competition with RNK04010 (BODIPY-labeled), 5 nM, 300 min at 25° C. A digest of the protocol: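 Polarization signal was read after equilibration at 25° C, for 120 min with FITC-geldanamycin or 300 min with the BODIPY-tagged RNK04010 probe, each at 5 nM final. Compounds spanned 20 μM down to 5.2 nM in 2.5-fold dilutions against the HSP90a N-terminal domain.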

Test [2] deals with NCI-H358 human non-small cell lung cancer. As to the kind of experiment: NCI-H358 CCK-8 proliferation assay. It counts as cell-based. The settings on record: NCI-H358 cells, 72 hr. The method in brief: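 Three KRAS(G12C) lines are used, MIA PaCa-2 at two mutant copies and the NSCLC lines NCI-H358 and NCI-H23 at one. Each compound is titrated 3-fold from 20 μM to 1.02 nM, and proliferation is scored by CCK-8.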

Structures are written as SMILES.

Usually IC50 stands for the concentration needed to halve the response being measured. A lower IC50 goes with inhibition by little substance. As a reminder, the EC50 is the midpoint of the concentration-response curve. High values mean a less potent agent, low ones a more potent agent. Regarding `C=CC(=O)N1CCN(c2nc(NCCC(=O)NCCOCCOCCOc3ccc(-n4c(O)nnc4-c4cc(C(C)C)c(O)cc4O)cc3)nc3c2CCN(c2cccc4ccccc24)C3)C[C@@H]1CC#N` [Compound 92, (S)-3-((4-(4-acryloyl-3-(cyanomethyl)piperazin-1-yl)-7-(naphthalen-1-yl)-5,6,7,8-tetrahydropyrido[3,4-d]pyrimidin-2-yl)amino)-N-(2-(2-(2-(4-(3-(2,4-dihydroxy-5-isopropylphenyl)-5-hydroxy-4H-1,2,4-triazol-4-yl)phenoxy)ethoxy)ethoxy)ethyl)propanamide, trifluoroacetic acid], the IC50 in test [1] is less than 100 nM. This compound showed an EC50 in test [2] greater than 1000 nM.

As for `C=CC(=O)N1CCN(c2nc(NCCC(=O)NCCOCCOCCOc3ccc(-n4c(O)nnc4-c4cc(C(C)C)c(O)cc4O)cc3)nc3c2CCN(c2cccc4cccc(Cl)c24)C3)C[C@@H]1CC#N` [Compound 93, (S)-3-((4-(4-acryloyl-3-(cyanomethyl)piperazin-1-yl)-7-(8-chloronaphthalen-1-yl)-5,6,7,8-tetrahydropyrido[3,4-d]pyrimidin-2-yl)amino)-N-(2-(2-(2-(4-(3-(2,4-dihydroxy-5-isopropylphenyl)-5-hydroxy-4H-1,2,4-triazol-4-yl)phenoxy)ethoxy)ethoxy)ethyl)propanamide, trifluoroacetic acid], the IC50 in test [1] fell in the range of 100 to 1000 nM. In addition, in test [2], the EC50 is greater than 1000 nM.

On to `C=CC(=O)N1CCN(c2nc(NCCC(=O)N3CCN(Cc4ccc5c(c4)CN(C(=O)c4cc(CCC)c(O)cc4O)C5)CC3)nc3c2CCN(c2cc(O)cc4ccccc24)C3)CC1` [Compound 94, 1-(4-(2-((3-(4-((2-(2,4-dihydroxy-5-propylbenzoyl)isoindolin-5-yl)methyl)piperazin-1-yl)-3-oxopropyl)amino)-7-(3-hydroxynaphthalen-1-yl)-5,6,7,8-tetrahydropyrido[3,4-d]pyrimidin-4-yl)piperazin-1-yl)prop-2-en-1-one, trifluoroacetic acid], for which the IC50 in test [1] is greater than 1000 nM. Also, the EC50 in test [2] was greater than 1000 nM.

The compound `C=CC(=O)N1CCN(c2nc(NCCC(=O)NCc3ccc(-n4c(O)nnc4-c4cc(C(C)C)c(O)cc4O)cc3F)nc3c2CCN(c2cccc4ccccc24)C3)C[C@H]1CC#N` [Compound 96, (R)-3-((4-(4-acryloyl-3-(cyanomethyl)piperazin-1-yl)-7-(naphthalen-1-yl)-5,6,7,8-tetrahydropyrido[3,4-d]pyrimidin-2-yl)amino)-N-(4-(3-(2,4-dihydroxy-5-isopropylphenyl)-5-hydroxy-4H-1,2,4-triazol-4-yl)-2-fluorobenzyl)propanamide, trifluoroacetic acid] returned an IC50 in test [1] of 100 to 1000 nM. Moreover, the EC50 in test [2] is greater than 1000 nM.

Compound `C=CC(=O)N1CCN(c2nc(NCCC(=O)NCc3ccc(-n4c(O)nnc4-c4cc(C(C)C)c(O)cc4O)cc3F)nc3c2CCN(c2cccc4cccc(Cl)c24)C3)C[C@H]1CC#N` [Compound 97, (R)-3-((4-(4-acryloyl-3-(cyanomethyl)piperazin-1-yl)-7-(8-chloronaphthalen-1-yl)-5,6,7,8-tetrahydropyrido[3,4-d]pyrimidin-2-yl)amino)-N-(4-(3-(2,4-dihydroxy-5-isopropylphenyl)-5-hydroxy-4H-1,2,4-triazol-4-yl)-2-fluorobenzyl)propanamide, trifluoroacetic acid] had an IC50 in test [1] of 100 to 1000 nM. In test [2], this compound gave an EC50 greater than 1000 nM.

Turning to `C=CC(=O)N1CCN(c2nc(NCCC(=O)N3CCN(Cc4ccc(-n5c(O)nnc5-c5cc(C(C)C)c(O)cc5O)cc4)CC3)nc3c2CCN(c2cccc4cccc(Cl)c24)C3)C[C@H]1CC#N` [Compound 100, (R)-2-(1-acryloyl-4-(7-(8-chloronaphthalen-1-yl)-2-((3-(4-(4-(3-(2,4-dihydroxy-5-isopropylphenyl)-5-hydroxy-4H-1,2,4-triazol-4-yl)benzyl)piperazin-1-yl)-3-oxopropyl)amino)-5,6,7,8-tetrahydropyrido[3,4-d]pyrimidin-4-yl)piperazin-2-yl)acetonitrile, trifluoroacetic acid], in test [1], the IC50 lay in the range of 100 to 1000 nM. For the same compound, the 50% effective concentration (EC50) in test [2] is greater than 1000 nM.

The values are drawn from US20230391772A1, “METHODS AND COMPOSITIONS FOR TARGETED PROTEIN DEGRADATION” (Ranok Therapeutics (Hangzhou) Co. Ltd., priority 2020, published 2023).
